# Measurements: patent US20210061872A1 (PROTAGONIST THERAPEUTICS, published 2021)
# B1: RI-Mini Hepcidin (peptide)
# peptide: FICIPFHTD
# modifications: all residues are D-amino acids (Hy-DPhe-DIle-DCys-DIle-DPro-DPhe-DHis-DThr-DAsp-NH2); C-terminal amide
# Tests used:
# [1] = target: T1, human ferroportin (Homo sapiens, UniProt Q9NP59); experiment: ferroportin-GFP internalization/degradation assay in HEK293 cells; format: cell-based; conditions: read-out: Potency EC50
# T1 construct: expressed in transfected cells
# T1 sequence (Q9NP59 1-571): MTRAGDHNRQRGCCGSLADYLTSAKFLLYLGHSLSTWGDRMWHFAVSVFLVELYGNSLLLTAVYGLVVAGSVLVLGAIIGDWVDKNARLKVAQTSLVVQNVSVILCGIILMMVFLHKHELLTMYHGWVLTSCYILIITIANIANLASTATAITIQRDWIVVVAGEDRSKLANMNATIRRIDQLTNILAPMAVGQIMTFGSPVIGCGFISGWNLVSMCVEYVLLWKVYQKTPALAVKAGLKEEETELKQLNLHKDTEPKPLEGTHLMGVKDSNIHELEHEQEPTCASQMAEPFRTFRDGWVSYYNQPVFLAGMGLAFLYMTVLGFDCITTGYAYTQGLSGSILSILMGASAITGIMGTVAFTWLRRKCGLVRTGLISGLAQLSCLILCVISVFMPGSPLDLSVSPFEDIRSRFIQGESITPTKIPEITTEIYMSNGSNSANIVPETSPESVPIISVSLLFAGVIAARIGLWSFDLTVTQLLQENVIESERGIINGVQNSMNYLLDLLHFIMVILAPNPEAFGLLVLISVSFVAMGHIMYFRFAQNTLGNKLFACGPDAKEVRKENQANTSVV
# [2] = tested on: Cynomolgus monkeys; experiment: PK-PD experiment, serum iron (Cobas IRON2); format: in vivo
# Method: Iron content in plasma/serum was measured using a colorimetric assay on the Cobas c 111 according to instructions from the manufacturer of the assay (assay: IRON2: ACN 661).
# [3] = tested on: PV mice; conditions: cited from earlier work
# [4] = tested on: patients with phlebotomy-dependent PV and splenomegaly; conditions: through week 32; 6 events with BAT; cited from earlier work
# [5] = tested on: PV patients; experiment: Phase 2 study in phlebotomy-requiring Polycythemia vera
# Description: Eligible patients were enrolled in the 28-week dose finding part of the Phase 2 trial. […] Body iron status was quantified by monitoring serum ferritin, serum iron, transferrin saturation (TSAT), mean corpuscular volume (MCV) and mean corpuscular hemoglobin (MCH).
# [6] = tested on: healthy subjects; experiment: Phase I single dose study; format: in vivo, human; conditions: 62 healthy subjects
# Description: Compound A is a hepcidin mimetic agent in clinical studies for multiple blood disorders.
# [7] = tested on: Cynomolgus monkeys; experiment: repeat-dose study, 13 weekly SC doses, limiting erythropoiesis; format: in vivo
# Description: A cohort of animals (4/sex/group) were sacrificed on Day 92 (Main), and the remaining animals (2/sex/group) were sacrificed on Day 120 following a 35-day recovery period (Recovery).
# [8] = target: T2, human ferroportin (SLC40A1) fused in frame with GFP, stably expressed on HEK293 cells (human, UniProt Q9NP59 1-571); experiment: cell-based or functional assay
# T2 sequence (looked up): T1 sequence (Q9NP59 1-571)
# [9] = SC doses of 10 mg to 80 mg, various times after dosing
molecule,measurement,setting,value
"CC[C@@H](C)[C@@H](NC(=O)[C@H](N)Cc1ccccc1)C(=O)N[C@H](CS)C(=O)N[C@@H](C(=O)N1CCC[C@@H]1C(=O)N[C@H](Cc1ccccc1)C(=O)N[C@H](Cc1c[nH]cn1)C(=O)N[C@@H](C(=O)N[C@H](CC(=O)O)C(N)=O)[C@H](C)O)[C@H](C)CC [RI-Mini Hepcidin, Hy-DPhe-DIle-DCys-DIle-DPro-DPhe-DHis-DThr-DAsp-NH2]",EC50,[1],> 10 µM
Isovaleric acid-DTHFPCIKF(K(PEG11-Palm))PRSK[Sar]CK-NH2 [Compound B],time of maximal serum iron reduction,[2]; 2.93 mg/kg SC,about 12 hour
same,"serum iron reduction, lower than pre-dose levels","[2]; 2.93 mg/kg SC, at about 12 hour",12 fold
same,serum concentrations having maximum effect on serum iron,[2]; SC single dose,50 to 125 ng/mL
same,serum concentrations that were effective on serum iron,[2]; SC single dose,25 to 125 ng/mL
"minihepcidin: hepcidin mimetic administered to PV mice in Casu et al., Blood 2016 (DTHFPICIF)",hematocrit,[3],normalizes hematocrit
same,splenomegaly,[3],significantly reduces splenomegaly
N#CC[C@H](C1CCCC1)n1cc(-c2ncnc3[nH]ccc23)cn1 [ruxolitinib],thromboembolic events,[4],1 event
CCCCCCCCCCCCCCCC(=O)N[C@@H](CCC(=O)NCCCC[C@@H]1NC(=O)[C@H]([C@@H](C)CC)NC(=O)[C@@H](NC(=O)[C@@H]2CCCN2C(=O)[C@H](Cc2ccccc2)NC(=O)[C@H](Cc2c[nH]cn2)NC(=O)[C@@H](NC(=O)[C@H](CC(=O)O)NC(=O)CC(C)C)[C@@H](C)O)CSSC[C@@H](C(=O)N[C@@H](CCCCN)C(N)=O)NC(=O)CNC(=O)[C@H](CCCCN)NC(=O)[C@H](CO)NC(=O)[C@H](CCCNC(=N)N)NC(=O)[C@@H]2CCCN2C(=O)[C@H](CCC(=O)O)NC(=O)[C@H](Cc2ccccc2)NC1=O)C(=O)O [Compound A],most frequent adverse events,[5]; 10-80 mg SC weekly,injection site reaction (ISR) reported by three patients
same,tolerability,[5]; 10-80 mg SC weekly,well tolerated
same,"plasma concentrations of Compound A, lower end of range (below detectable)",[5]; [9],< 2 ng/mL
same,"plasma concentrations of Compound A, upper end of range",[5]; [9],866 ng/mL
same,platelet counts,"[5]; over the course of treatment, FIG. 14",remained generally steady
same,leukocyte count,"[5]; over the course of treatment, FIG. 16",remained generally steady
same,grade of most injection site reactions,"[5]; transient, no patient discontinued",1-2 grade
same,adverse events,[6],without significant adverse events
same,platelets,"[7]; 6 mg/kg/dose, male and female, FIG. 5",significantly elevated levels of platelets
same,total bilirubin (tBili),"[7]; at ≥2 mg/kg/day, treatment period, FIG. 4",increase in total bilirubin
same,"bone marrow (femur, sternum) findings",[7]; at ≥2 mg/kg/dose,hematopoietic hypercellularity occurred in bone marrow
same,liver and spleen findings,[7]; at ≥2 mg/kg/dose,extramedullary hematopoiesis and hemosiderin deposition was observed in the liver and spleen
H-DTHFPICIF-NH2 [Mini-Hepcidin],"Potency EC50 (nM); ferroportin internalization/degradation, decrease in GFP fluorescence of ferroportin-GFP HEK293 cells",[8],712 nM
B1,"Potency EC50 (nM); ferroportin internalization/degradation, decrease in GFP fluorescence of ferroportin-GFP HEK293 cells",[8],> 10000 nM
